What follows are compounds tested on human immortalized podocytes inducibly expressing APOL1 G2 (assay: APOL1 G2 podocyte cell rescue assay (Example B4)). Conditions: Homo sapiens, differentiated human podocytes, doxycycline-induced APOL1 G2, CellTiter-Glo; geometric mean of at least 2 runs; † = single run.
Format: cell-based
Summary of the method: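 Differentiated hTERT-immortalized podocytes (clone D10) with doxycycline-inducible C-terminally HiBiT-tagged APOL1 G2, 6,000 cells/well, treated with doxycycline plus 8-point 3-fold compound series (0.4% DMSO) for 95 h at 37 °C. Viability by CellTiter-Glo luminescence; EC50 as geometric mean of ≥2 runs, each in duplicate.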
With `O=C(c1c(F)cc(OCCN2CCC3(CC2)C(=O)Nc2ccc(Cl)cc23)cc1F)N1CCS(=O)(=O)CC1` [Compound 259, 4-[4-(2-{5-chloro-2-oxo-1,2-dihydrospiro[indole-3,4′-piperidin]-1′-yl}ethoxy)-2,6-difluorobenzoyl]-1λ^6-thiomorpholine-1,1-dione] the EC50 was 1.21 nM.
For `C[C@]1(O)C[C@@H](N2C(=O)CCc3cc(OCCN4CCC5(CC4)C(=O)Nc4ccc(C(F)F)cc45)cnc32)C1` [Compound 274, 5-(difluoromethyl)-1′-[2-({7-oxo-8-[(cis)-3-hydroxy-3-methylcyclobutyl]-5,6,7,8-tetrahydro-1,8-naphthyridin-3-yl}oxy)ethyl]-1,2-dihydrospiro[indole-3,4′-piperidin]-2-one], the EC50 was 18.8 nM.
Work on `CS(=O)(=O)C1CN(C(=O)c2ccc(OCCN3CCC4(CC3)C(=O)Nc3ccc(Cl)cc34)cc2F)C1` [Compound 233, 5-chloro-1′-{2-[3-fluoro-4-(3-methanesulfonyl-azetidine-1-carbonyl)phenoxy]ethyl}-1,2-dihydrospiro[indole-3,4′-piperidin]-2-one] yielded an EC50 of 4.25 nM.
In the case of `CS(=O)(=O)C1(c2ncc(OCCN3CCC4(CC3)C(=O)Nc3ccc(C#N)cc34)cc2F)CC1` [Compound 283, 1′-(2-{[5-fluoro-6-(1-methanesulfonylcyclopropyl)pyridin-3-yl]oxy}ethyl)-2-oxo-1,2-dihydrospiro[indole-3,4′-piperidine]-5-carbonitrile], the EC50 is reported as 5.08 nM.
